{"source": "ChEMBL document CHEMBL3868621", "about": "“A novel adamantane thiadiazole derivative induces mitochondria-mediated apoptosis in lung carcinoma cell line” (Bioorg Med Chem, 2017)", "key": {"A549 [1]": {"system": "A549", "test": "Induction of apoptosis in human A549 cells assessed as late apoptotic cells at 0.087 mM after 24 hrs by annexin V/propidium iodide double staining based flow cytometry (reference value: 0.21%)", "format": "functional"}, "[2]": {"test": "Cytotoxicity against human A549 cells assessed as decrease in cell viability after 24 hrs by MTT assay", "format": "functional, cell-based", "conditions": "A549, 24 h"}, "A549 [3]": {"system": "A549", "test": "Induction of apoptosis in human A549 cells assessed as late apoptotic cells at 0.17 mM after 48 hrs by annexin V/propidium iodide double staining based flow cytometry (reference value: 0.08%)", "format": "functional"}, "A549 [4]": {"system": "A549", "test": "Effect on Bax expression in human A549 cells assessed as ratio of Bax to beta-actin mRNA level at 0.17 mM by qRT-PCR analysis (reference value: 9.0641)", "format": "functional"}, "A549 [5]": {"system": "A549", "test": "Induction of morphological changes in human A549 cells assessed as increased cellular granularity at 0.17 mM after 72 hrs by uranyl acetate/lead citrate staining based transmission electron microscopic imaging analysis", "format": "functional, cell-based"}, "[6]": {"test": "Cytotoxicity against human PC3 cells assessed as decrease in cell viability after 24 hrs by MTT assay", "format": "functional, cell-based", "conditions": "PC-3, 24 h"}, "A549 [7]": {"system": "A549", "test": "Induction of morphological changes in human A549 cells assessed as reduction in nucleus volume at 0.17 mM after 72 hrs by uranyl acetate/lead citrate staining based transmission electron microscopic imaging analysis", "format": "functional, cell-based"}, "A549 [8]": {"system": "A549", "test": "Effect on p53 expression in human A549 cells assessed as ratio of p53 to beta-actin mRNA level at 0.17 mM by qRT-PCR analysis (reference value: 10.87)", "format": "functional"}, "A549 [9]": {"system": "A549", "test": "Induction of apoptosis in human A549 cells assessed as necrotic cells at 0.17 mM after 48 hrs by annexin V/propidium iodide double staining based flow cytometry (reference value: 0%)", "format": "functional"}, "[10]": {"test": "Cell cycle arrest in human A549 cells assessed as accumulation at G0/G1 phase at 0.087 mM after 24 hrs by propidium iodide staining based flow cytometry (reference value: 33.96%)", "format": "functional"}, "[11]": {"test": "Cell cycle arrest in human A549 cells assessed as accumulation at G2/M phase at 0.087 mM after 24 hrs by propidium iodide staining based flow cytometry (reference value: 26.63%)", "format": "functional"}, "A549 [12]": {"system": "A549", "test": "Induction of apoptosis in human A549 cells after 24 to 48 hrs by annexin V/propidium iodide double staining based flow cytometry", "format": "functional, cell-based"}, "A549 [13]": {"system": "A549", "test": "Induction of apoptosis in human A549 cells assessed as viable cells at 0.17 mM after 48 hrs by annexin V/propidium iodide double staining based flow cytometry (reference value: 98.6%)", "format": "functional", "conditions": "A549, 48 h, read-out: Activity"}, "[14]": {"test": "Cytotoxicity against human HCT116 cells assessed as decrease in cell viability after 24 hrs by MTT assay", "format": "functional, cell-based", "conditions": "HCT-116, 24 h"}, "A549 [15]": {"system": "A549", "test": "Induction of apoptosis in human A549 cells at 0.087 to 0.17 mM by annexin V/propidium iodide double staining based flow cytometry", "format": "functional, cell-based", "conditions": "TDE = time-dependent effect"}, "A549 [16]": {"system": "A549", "test": "Induction of morphological changes in human A549 cells assessed as large uplifted structures on cell surface by measuring particle length at 0.087 mM after 24 hrs by atomic force microscopic imaging analysis (reference value: 0.161 micrometer)", "format": "functional"}, "A549 [17]": {"system": "A549", "test": "Induction of morphological changes in human A549 cells assessed as cell shrinkage at 0.17 mM after 72 hrs by uranyl acetate/lead citrate staining based transmission electron microscopic imaging analysis", "format": "functional"}, "A549 [18]": {"system": "A549", "test": "Induction of apoptosis in human A549 cells assessed as early apoptotic cells at 0.17 mM after 48 hrs by annexin V/propidium iodide double staining based flow cytometry (reference value: 1.27%)", "format": "functional"}, "A549 [19]": {"system": "A549", "test": "Induction of morphological changes in human A549 cells assessed as formation of membrane blebs at 0.17 mM after 72 hrs by uranyl acetate/lead citrate staining based transmission electron microscopic imaging analysis", "format": "functional, cell-based"}, "A549 [20]": {"system": "A549", "test": "Induction of morphological changes in human A549 cells assessed as large uplifted structures on cell surface by measuring average particle height at 0.087 mM after 24 hrs by atomic force microscopic imaging analysis (reference value: 0.144 micrometer)", "format": "functional"}, "A549 [21]": {"system": "A549", "test": "Induction of apoptosis in human A549 cells assessed as increase in caspase-3 activity at 0.17 mM using Ac-DEVD-pNA as substrate after 48 hrs by colorimetric assay (reference value: 0.005)", "format": "functional"}, "A549 [22]": {"system": "A549", "test": "Induction of morphological changes in human A549 cells assessed as change in mitochondrial morphology at 0.17 mM after 72 hrs by uranyl acetate/lead citrate staining based transmission electron microscopic imaging analysis", "format": "functional, cell-based"}, "A549 [23]": {"system": "A549", "test": "Induction of morphological changes in human A549 cells assessed as small membrane protrusions on cell surface at 0.087 mM after 24 hrs by atomic force microscopic imaging analysis", "format": "functional, cell-based"}, "A549 [24]": {"system": "A549", "test": "Effect on Bcl2 expression in human A549 cells assessed as ratio of Bcl-2 to beta-actin mRNA level at 0.17 mM by qRT-PCR analysis (reference value: 15.0312)", "format": "functional"}, "A549 [25]": {"system": "A549", "test": "Induction of morphological changes in human A549 cells assessed as change in mitochondrial number at 0.17 mM after 72 hrs by uranyl acetate/lead citrate staining based transmission electron microscopic imaging analysis", "format": "functional, cell-based"}, "[26]": {"test": "Cell cycle arrest in human A549 cells assessed as accumulation at S phase at 0.087 mM after 24 hrs by propidium iodide staining based flow cytometry (reference value: 34.42%)", "format": "functional"}, "A549 [27]": {"system": "A549", "test": "Induction of morphological changes in human A549 cells assessed as larger uplifted particles on cell surface at 0.087 mM after 24 hrs by atomic force microscopic imaging analysis", "format": "functional, cell-based"}, "A549 [28]": {"system": "A549", "test": "Induction of morphological changes in human A549 cells assessed as large uplifted structures on cell surface by measuring particle width at 0.087 mM after 24 hrs by atomic force microscopic imaging analysis (reference value: 0.147 micrometer)", "format": "functional"}, "A549 [29]": {"system": "A549", "test": "Induction of apoptosis in human A549 cells assessed as viable cells at 0.087 mM after 24 hrs by annexin V/propidium iodide double staining based flow cytometry (reference value: 98.85%)", "format": "functional", "conditions": "A549, 24 h, read-out: Activity"}, "A549 [30]": {"system": "A549", "test": "Induction of morphological changes in human A549 cells assessed as nuclear chromatin condensation and margination at 0.17 mM after 72 hrs by uranyl acetate/lead citrate staining based transmission electron microscopic imaging analysis", "format": "functional, cell-based"}, "[31]": {"test": "Cytotoxicity against HFB4 cells assessed as decrease in cell viability after 24 hrs by MTT assay", "format": "toxicity, cell-based", "conditions": "human"}, "A549 [32]": {"system": "A549", "test": "Effect on caspase-3 expression in human A549 cells assessed as ratio of caspase-3 to beta-actin mRNA level at 0.17 mM by qRT-PCR analysis (reference value: 6.398)", "format": "functional"}, "A549 [33]": {"system": "A549", "test": "Induction of morphological changes in human A549 cells assessed as formation of apoptotic bodies at 0.17 mM after 72 hrs by uranyl acetate/lead citrate staining based transmission electron microscopic imaging analysis", "format": "functional, cell-based"}, "A549 [34]": {"system": "A549", "test": "Induction of apoptosis in human A549 cells assessed as early apoptotic cells at 0.087 mM after 24 hrs by annexin V/propidium iodide double staining based flow cytometry (reference value: 0.91%)", "format": "functional"}, "A549 [35]": {"system": "A549", "test": "Induction of morphological changes in human A549 cells assessed as cell surface damage by measuring average roughness value at 0.087 mM after 24 hrs by atomic force microscopic imaging analysis (reference value: 1.11 micrometer)", "format": "functional"}, "A549 [36]": {"system": "A549", "test": "Induction of apoptosis in human A549 cells assessed as necrotic cells at 0.087 mM after 24 hrs by annexin V/propidium iodide double staining based flow cytometry (reference value: 0.02%)", "format": "functional"}}, "note": "The source made the active and inactive calls. The rule behind the calls is not given here.", "data": [{"compound": "O=C(Nc1ccccc1)c1nn(-c2ccccc2)/c(=N/NC(=O)C23CC4CC(CC(C4)C2)C3)s1", "values": [{"measurement": "Activity", "setting": "A549 [1]", "result": 0.61, "unit": "%"}, {"measurement": "IC50", "setting": "[2]", "result": 87, "unit": "µM"}, {"measurement": "Activity", "setting": "A549 [3]", "result": 0.18, "unit": "%"}, {"measurement": "Ratio", "setting": "A549 [4]", "result": 18.781}, {"measurement": "Activity", "setting": "A549 [5]", "result": "Active"}, {"measurement": "IC50", "setting": "[6]", "result": 163, "unit": "µM"}, {"measurement": "Activity", "setting": "A549 [7]", "result": "Active"}, {"measurement": "Ratio", "setting": "A549 [8]", "result": 13.73}, {"measurement": "Activity", "setting": "A549 [9]", "result": 0, "unit": "%"}, {"measurement": "Activity", "setting": "[10]", "result": 29.2, "unit": "%"}, {"measurement": "Activity", "setting": "[11]", "result": 1.97, "unit": "%"}, {"measurement": "Activity", "setting": "A549 [12]", "result": "Dose-dependent effect"}, {"measurement": "viability at 170 µM", "setting": "A549 [13]", "result": 83.6, "unit": "%"}, {"measurement": "IC50", "setting": "[14]", "result": 168, "unit": "µM"}, {"measurement": "Activity", "setting": "A549 [15]", "result": "Tde"}, {"measurement": "Activity", "setting": "A549 [16]", "result": 0.142, "unit": "um"}, {"measurement": "Activity", "setting": "A549 [17]", "result": "Active"}, {"measurement": "Activity", "setting": "A549 [18]", "result": 16.2, "unit": "%"}, {"measurement": "Activity", "setting": "A549 [19]", "result": "Active"}, {"measurement": "Activity", "setting": "A549 [20]", "result": 0.161, "unit": "um"}, {"measurement": "OD", "setting": "A549 [21]", "result": 0.021}, {"measurement": "Activity", "setting": "A549 [22]", "result": "Active"}, {"measurement": "Activity", "setting": "A549 [23]", "result": "Active"}, {"measurement": "Ratio", "setting": "A549 [24]", "result": 8.323}, {"measurement": "Activity", "setting": "A549 [25]", "result": "Active"}, {"measurement": "Activity", "setting": "[26]", "result": 68.9, "unit": "%"}, {"measurement": "Activity", "setting": "A549 [27]", "result": "Active"}, {"measurement": "Activity", "setting": "A549 [28]", "result": 0.134, "unit": "um"}, {"measurement": "viability at 87 µM", "setting": "A549 [29]", "result": 89, "unit": "%"}, {"measurement": "Activity", "setting": "A549 [30]", "result": "Active"}, {"measurement": "IC50 at 24 h", "setting": "[31]", "result": 218, "unit": "µM"}, {"measurement": "Ratio", "setting": "A549 [32]", "result": 12.327}, {"measurement": "Activity", "setting": "A549 [33]", "result": "Active"}, {"measurement": "Activity", "setting": "A549 [34]", "result": 10.36, "unit": "%"}, {"measurement": "Activity", "setting": "A549 [35]", "result": 1.29, "unit": "um"}, {"measurement": "Activity", "setting": "A549 [36]", "result": 0, "unit": "%"}]}, {"compound": "O=c1[nH]cc(F)c(=O)[nH]1", "note": "[FLUOROURACIL]", "values": [{"measurement": "IC50", "setting": "[2]", "result": 2900, "unit": "µM"}, {"measurement": "IC50", "setting": "[6]", "result": 1200, "unit": "µM"}, {"measurement": "IC50", "setting": "[14]", "result": 2000, "unit": "µM"}, {"measurement": "IC50 at 24 h", "setting": "[31]", "result": "> 5000", "unit": "µM"}]}]}
